In patent publication US9493468B2, “Antifungal 5,6-dihydro-4H-pyrrolo[1,2-a][1,4]benzo-diazepines and 6H-pyrrolo[1,2-a][1,4]benzodiazepines substituted with heterocyclic derivatives” (Janssen Pharmaceutica NV, priority 2011, dated 2016):

Experiments:
Type in all cases: cell-based
Trichophyton rubrum = assay: Antifungal activity in vitro, resazurin growth inhibition: Trichophyton rubrum (B68183); conditions: for IC50: read-out: Inf. C: Trichophyton rubrum B68183 pIC50 (converted)
Outline: (§1)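 Dermatophytes incubated at 27° C. for one week or more with compound, max 64 μM, in RPMI-1640/MOPS pH 7.0±0.1, 10^3 cfu/well. Viability by resazurin-to-resorufin fluorescence, 550/590 nm.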

Sporothrix schenkii = assay: Antifungal activity in vitro, resazurin growth inhibition: Sporothrix schenkii (B62482); conditions: for IC50: read-out: Inf. A: Sporothrix schenkii B62482 pIC50 (converted)
Outline: (§2)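 Resazurin conversion to fluorescent resorufin (ex 550/em 590 nm) served as the growth readout. Compounds spanned 2- or 4-fold serial dilutions with 64 μM top in-test concentration; inoculum 10^3 cfu per well in MOPS-buffered RPMI-1640 (pH 7.0, 2% glucose). Incubation species-dependent, dermatophytes at 27° C. for ≥1 week.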

Aspergillus fumigatus = assay: Antifungal activity in vitro, resazurin growth inhibition: Aspergillus fumigatus (B42928); conditions: for IC50: read-out: Inf. E: Aspergillus fumigatus B42928 pIC50 (converted)
Outline: as §2

Cryptococcus neoformans = assay: Antifungal activity in vitro, resazurin growth inhibition: Cryptococcus neoformans (B66663); conditions: for IC50: read-out: Inf. F: Cryptococcus neoformans B66663 pIC50 (converted)
Outline: as §2

Candida parapsilosis = assay: Antifungal activity in vitro, resazurin growth inhibition: Candida parapsilosis (B66126); conditions: for IC50: Lodderomyces parapsilosis, read-out: Inf. D: Candida parapsilosis B66126 pIC50 (converted)
Outline: as §2

Microsporum canis = assay: Antifungal activity in vitro, resazurin growth inhibition: Microsporum canis (B68128); conditions: for IC50: read-out: Inf. B: Microsporum canis B68128 pIC50 (converted)
Outline: as §1

[1] = system: Trichophyton mentagrophytes; assay: Antifungal activity in vitro, resazurin growth inhibition: Trichophyton mentagrophytes (B70554); conditions: for IC50: read-out: Inf. G: Trichophyton mentagrophytes B70554 pIC50 (converted)
Outline: as §1

Scedosporium prolificans = assay: Antifungal activity in vitro, resazurin growth inhibition: Scedosporium prolificans (IHEM21157); conditions: for IC50: Lomentospora prolificans, read-out: Inf. I: Scedosporium prolificans IHEM21157 pIC50 (converted)
Procedure: (§3) The standard susceptibility screen is performed in 96-well plates (U-bottom, Greiner Bio-One). Serial dilutions (2-fold or 4-fold) of 20 mM compound stock solutions are made in 100% DMSO, followed by an intermediate dilution step in water. These serial dilutions (10 μl) are then spotted onto test-plates that can be stored in the dark at 4° C. for a maximum period of 2 weeks. An adequate broad dose-range is included with 64 μM as the highest in-test concentration. The culture medium RPMI-1640 is supplemented with L-glutamine, 2% glucose and buffered with 3-(N-morpholino)-propanesulfonic acid (MOPS) at pH 7.0±0.1.
(§4) The different fungal species/isolates (Table 3a) are cryopreserved and 1/1000 diluted in medium just prior to use. A standard inoculum of 200 μl containing 10^3 colony-forming unit (cfu) is then added to each well. A positive control (100% growth=fungal culture without antifungal) and a negative control (0% growth ═RPMI-MOPS medium) are included on each plate. Optimal incubation time and temperature are dependent on the fungal species and vary from 24 h for yeasts (37° C.) to one week or more for dermatophytes (27° C.). Inhibition of fungal growth is measured after adding 10 μl of 0.005% (w/v) resazurin (Sigma Aldrich) to each well, based on the principle that living cells convert the non-fluorescent blue resazurin into the pink and fluorescent resorufin, allowing fluorimetric reading (λex 550 nm and λem 590 nm) after an additional incubation period (‘resa’ time mentioned in Table 3a).

Scedosporium apiospermum = assay: Antifungal activity in vitro, resazurin growth inhibition: Scedosporium apiospermum (IHEM3817); conditions: for IC50: read-out: Inf. H: Scedosporium apiospermum IHEM3817 pIC50 (converted)
Procedure: as §3, §4

Inf. C: Trichophyton rubrum B68183, pIC50 (Trichophyton rubrum)	Inf. A: Sporothrix schenkii B62482, pIC50 (Sporothrix schenkii)	Inf. E: Aspergillus fumigatus B42928, pIC50 (Aspergillus fumigatus)	Inf. F: Cryptococcus neoformans B66663, pIC50 (Cryptococcus neoformans)	Inf. D: Candida parapsilosis B66126, pIC50 (Candida parapsilosis)	Inf. B: Microsporum canis B68128, pIC50 (Microsporum canis)	Inf. G: Trichophyton mentagrophytes B70554, pIC50 [1]	Inf. I: Scedosporium prolificans IHEM21157, pIC50 (Scedosporium prolificans)	Inf. H: Scedosporium apiospermum IHEM3817, pIC50 (Scedosporium apiospermum)	IC50 (Trichophyton rubrum) [nM]	IC50 (Sporothrix schenkii) [nM]	IC50 (Aspergillus fumigatus) [nM]	IC50 (Cryptococcus neoformans) [nM]	IC50 (Candida parapsilosis) [nM]	IC50 (Microsporum canis) [nM]	IC50 (Scedosporium prolificans) [nM]	IC50 (Scedosporium apiospermum) [nM]	IC50 [1] [nM]	SMILES
<4.19	<4.19	<4.19	5.73	<4.19	<4.19	<4.19												Clc1cccc2c1CN=C(c1ccc3scc(Cl)c3c1)c1cccn1-2 [Compound 177]
4.37	<4.19	5.93	6.49	<4.19	<4.19	4.26												Clc1ccc2c(c1)-n1cccc1C(c1ccc3scc(Cl)c3c1)=NC2 [Compound 178]
5.03	4.41	4.49	4.67	<4.19	4.80	4.69												Clc1cccc2c1-n1cccc1C(c1ccc3scc(Cl)c3c1)=NC2 [Compound 179]
6.03	<4.19	<4.19	<4.19	<4.19	4.40	4.39												Clc1cccc2c1CN=C(c1nc3ccccc3s1)c1cccn1-2 [Compound 180]
5.94	<4.19	<4.19	<4.19	<4.19	5.69	4.98												Cl.Clc1cccc2c1CN=C(c1nc3ccccc3s1)c1cccn1-2 [Compound 181]
6.70	<4.49	4.94	4.91	4.58	5.52	5.87												c1ccc2c(c1)CN=C(c1ccc3ncsc3c1)c1cccn1-2 [Compound 182]
6.05	<4.19	5.02	5.06	<4.19	5.29	5.52												Fc1cccc2c1CN=C(c1ccc3scnc3c1)c1cccn1-2 [Compound 189]
6.14	<4.19	<4.19	4.93	<4.19	5.56	5.31												Fc1cc(F)c2c(c1)-n1cccc1C(c1ccc3scnc3c1)=NC2 [Compound 190]
4.29	<4.19	<4.19	4.81	<4.19	<4.19	5.03												Fc1cccc2c1CN=C(c1ccc3sc(C(F)(F)F)nc3c1)c1cccn1-2 [Compound 192]
<4.19	<4.19	<4.19	<4.19	<4.19	<4.19	<4.19												FC(F)(F)c1nc2cc(C3=NCc4c(Cl)cccc4-n4cccc43)ccc2s1 [Compound 193]
6.82	<4.19	<4.19	<4.19	<4.19	<4.19	6.06												Clc1cccc2c1CN=C(c1ccc3nsnc3c1)c1cccn1-2 [Compound 194]
6.34	<4.19	<4.19	<4.19	<4.19	<4.19	<4.19												Clc1cccc2c1CN=C(c1ccc3snnc3c1)c1cccn1-2 [Compound 195]
6.00	5.00	<4	5.00	4.00	6.00	5.33	5.00	<4										Clc1cccc2c1CN=C(c1ccc3ccccc3n1)c1cccn1-2 [Compound 197]
<4	<4	<4	5.00	<4	4.00	<4	<4	<4										Clc1cccc2c1CN=C(c1ccncc1)c1cccn1-2 [Compound 198]
									1000	> 100000	> 100000	> 100000	> 100000	1000	100	> 100000	> 100000	Clc1cccc2c1CN=C(c1cnc3ccccc3c1)c1cccn1-2 [Compound 201]
									100	1000	2140	10000	> 100000	10	100	10000	468	c1ccc2c(c1)CN=C(c1cnc3ccccc3c1)c1cccn1-2 [Compound 202]
4.67	<4	<4	<4	<4	4.50	<4	<4	<4										Clc1ccc2c(c1)-n1cccc1C(c1ccncc1)=NC2 [Compound 203]
4.67	<4	<4	<4	<4	4.50	<4	<4	<4										Clc1ccc2c(c1)-n1cccc1C(c1ccc3nc[nH]c3c1)=NC2 [Compound 204]

SMILES	Inf. C: Trichophyton rubrum B68183, pIC50 (Trichophyton rubrum)	Inf. A: Sporothrix schenkii B62482, pIC50 (Sporothrix schenkii)	Inf. E: Aspergillus fumigatus B42928, pIC50 (Aspergillus fumigatus)	Inf. F: Cryptococcus neoformans B66663, pIC50 (Cryptococcus neoformans)	Inf. D: Candida parapsilosis B66126, pIC50 (Candida parapsilosis)	Inf. B: Microsporum canis B68128, pIC50 (Microsporum canis)	Inf. G: Trichophyton mentagrophytes B70554, pIC50 [1]	Inf. I: Scedosporium prolificans IHEM21157, pIC50 (Scedosporium prolificans)	Inf. H: Scedosporium apiospermum IHEM3817, pIC50 (Scedosporium apiospermum)	IC50 (Trichophyton rubrum) [nM]	IC50 (Sporothrix schenkii) [nM]	IC50 (Aspergillus fumigatus) [nM]	IC50 (Cryptococcus neoformans) [nM]	IC50 (Candida parapsilosis) [nM]	IC50 (Microsporum canis) [nM]	IC50 (Scedosporium prolificans) [nM]	IC50 (Scedosporium apiospermum) [nM]	IC50 [1] [nM]
Clc1cccc2c1CN=C(c1cccnc1)c1cccn1-2 [Compound 199]	5.00	<4	<4	5.00	<4	4.50	<4	<4	<4									
